Data published in PMC8022858, “Discovery of bone morphogenetic protein 7-derived peptide sequences that attenuate the human osteoarthritic chondrocyte phenotype” (Molecular Therapy. Methods & Clinical Development, 2021).

Columns and labels:
[1] = system: human OA synovium explants; assay: PGE2 levels in culture supernatant of synovium explants; format: cell-based; details: n = 5 donors, 24 h, relative to control (Figure 6C)
Method: Figure 6 Peptide p[63−82] activity on OA knee joint tissues Human OA knee joint tissues were cultured for 24 h in the presence of BMP7, peptide p[63−82], or the scrambled version of peptide p[63−82] and compared to control conditions. (A) Cartilage tissues (n = 7 individual donors) were exposed to shown conditions and analyzed for COL2A1, COL10A1, and COX-2 mRNA expression by quantitative real-time PCR (normalized for 28S rRNA expression and relative to control conditions). (B) GAG release in medium from cartilage tissues (n = 5 individual donors) was determined, and data were calculated relative to the control condition. (C) PGE2 levels in culture supernatant from synovium (n = 5 donors). (D) PGE2 levels in culture supernatant from cartilage tissues from (B) (n = 5 donors). (E) PGE2 levels in culture supernatant from IPFP (n = 5 donors). (F) PGE2 levels in culture supernatant from the meniscus. Synovium, IPFP, and meniscus tissues were from the same 5 donors as the cartilage tissues in (B) and (C). PGE2 levels in conditions were calculated relative to controls for each donor. In graphs, error bars represent mean ± SEM; data are presented relative to the control condition for each time point. Statistical differences (unpaired two-tailed Student’s t test) were calculated to control condition: ∗p < 0.05, ∗∗p < 0.01, and ∗∗∗p < 0.001. […]

OA-HACs = assay: sGAG content of OA-HAC cultures (DMB assay); format: cell-based, human; details: three individual OA-HAC donors, 100 nM peptide, 24 h, normalized to total protein (Figure 2D)
Method: Figure 2 Bioactivity of BMP7-derived peptides p[63−82] and p[113−132] on OA-HACs Complete peptide library screening quantitative real-time PCR dataset for peptides p[63−82] and p[113−132] is presented. (A) SOX9, COL2A1, and NKX3-2 mRNA expression in the 18 OA-HAC pool exposed to 1,000, 100, 10, or 1 nM of peptide p[63−82] and p[113−132] is shown and presented relative to control (black bars) and alongside full-length BMP7 (white bars). (B) Similar to (A) but for chondrocyte hypertrophy-associated genes RUNX2, COL10A1, and ALPL. (C) Similar to (A) but for cartilage extracellular matrix remodeling-associated genes MMP13 and ADAMTS5 and inflammation-related genes COX-2 and IL-6. […] (G) In the same OA-HAC pool of 18 OA-HAC donors from the peptide library screening, sequence dependency of peptides p[63−82] and p[113−132] was determined by exposing the OA-HAC pool to scrambled versions of peptides p[63−82] and p[113−132] […] Error bars represent mean ± SEM, and statistical significance for peptide conditions or BMP7 versus control condition as determined by unpaired two-tailed Student’s t test is represented as ∗p < 0.05, ∗∗p < 0.01, and ∗∗∗p < 0.001.
The sGAG content was measured using a modified dimethyl methylene blue (DMB) assay.[58] The absorbance of samples was read at 540 and 595 nm using a spectrophotometer (Multiskan FC; Thermo Fisher Scientific). […]

| Substance | PGE2 levels in culture supernatants of synovial explants [1] | sulfated glycosaminoglycan (sGAG) content (OA-HACs) |
| --- | --- | --- |
| BMP7: full-length recombinant bone morphogenetic protein 7 (R&D Systems), used at 1 nM | not significantly changed | – |
| H-AAYYSEGESAFPLNSYMNAT-OH [p[63−82]] | not significantly changed | increased |
